Source: patent US5869494A, “Uses for barbituric acid analogs” (priority 1997, dated 1999)

Tests used:
Assay in all cases: NCI tumor cell line screen (SRB assay)
Assay type in all cases: cell-based
Design in all cases: activity: dose or concentration left out as unconfirmed
Conditions in all cases: Homo sapiens, read-out: PERCENT GROWTH
[1] = tested on: RXF 393
Procedure: (§1) The National Cancer Institute carried out the studies at the direction of the present inventor.
(§2) In the tests, the National Cancer Institute used the SRB (sulforhodamine B) assay as described by Skehan et al., (Journal of the National Cancer Institute, 82:13, Jul. 4, 1990, 1107-1112). Briefly, the assay is as follows. TCA-fixed cells were stained for 30 minutes with 0.4% (wt/vol) SRB dissolved in 1% acetic acid. At the end of the staining period, SRB was removed and cultures were quickly rinsed four times with 1% acetic acid to remove unbound dye. The acetic acid was poured directly into the culture wells from a beaker. […] Residual wash solution was removed by sharply flicking plates over a sink, which ensured the complete removal of rinsing solution. […] After being rinsed, the cultures were air dried until no standing moisture was visible. Bound dye was solubilized with 10 mM unbuffered Tris base (pH 10.5) for 5 minutes on a gyratory shaker.
(§3) Optical density (OD) was read in either a UVmax microtiter plate reader (Molecular Devices, Menlo Park, Calif.) or a Beckman DU-70 spectrophotometer. For maximum sensitivity, OD was measured at 564 nm. Because readings were linear with dye concentrations only below 1.8 OD units, however, suboptimal wavelengths were generally used, so that all samples in an experiment remained within the linear OD range. With most cell lines, wavelengths of approximately 490-530 nm worked well for this purpose.
(§4) Nine different non-small cell lung carcinoma cell lines, six different colon carcinoma cell lines, six different CNS (central nervous system) carcinoma cell lines, seven different melanoma cell lines, six different ovarian carcinoma cell lines, and eight different renal carcinoma cell lines were tested.

[2] = tested on: SF-539
Procedure: as §1, §2, §3, §4

[3] = tested on: PK-10
Procedure: as §1, §2, §3, §4

[4] = tested on: EKVX
Procedure: as §1, §2, §3, §4

[5] = tested on: SK-MEL-28
Procedure: as §1, §2, §3, §4

[6] = tested on: OVCAR-3
Procedure: as §1, §2, §3, §4

[7] = tested on: SK-MEL-2
Procedure: as §1, §2, §3, §4

[8] = tested on: SK-OV-3
Procedure: as §1, §2, §3, §4

[9] = tested on: CAKI-1
Procedure: as §1, §2, §3, §4

[10] = tested on: OVCAR-5
Procedure: as §1, §2, §3, §4

[11] = tested on: SW-620
Procedure: as §1, §2, §3, §4

[12] = tested on: SN12C
Procedure: as §1, §2, §3, §4

[13] = tested on: LOX IMVI
Procedure: as §1, §2, §3, §4

[14] = tested on: A549/ATCC
Procedure: as §1, §2, §3, §4

[15] = tested on: HOP-92
Procedure: as §1, §2, §3, §4

[16] = tested on: SNB-75
Procedure: as §1, §2, §3, §4

[17] = tested on: HCT-116
Procedure: as §1, §2, §3, §4

Molecule `CCCCN1C(=O)CC(=O)N(CCCC)C1=S` [Compound C1, 4,6(1H, 5H)-pyrimidinedione, 1,3-dibutyldihydro-2-thioxo] has an activity ([1]; 10^-3.0 Molar) of -85%, an activity at 100 µM ([1]; 10^-4.0 Molar) of 43% and an activity at 10 µM ([1]; 10^-5.0 Molar) of 86%. The activity at 1 µM ([1]; 10^-6.0 Molar) was 93%, the activity at 0.1 µM ([1]; 10^-7.0 Molar) was 93% and the activity ([2]; 10^-3.0 Molar) was -100%. The activity at 100 µM ([2]; 10^-4.0 Molar) was 72%, the activity at 10 µM ([2]; 10^-5.0 Molar) was 101% and the activity at 1 µM ([2]; 10^-6.0 Molar) was 104%. The activity at 0.1 µM ([2]; 10^-7.0 Molar) was 95%, the activity [3] was -19% and the activity at 0.1 µM [3] was 94%. The activity at 1 µM [3] was 94%, the activity at 10 µM [3] was 98% and the activity at 100 µM [3] was 74%. The activity ([4]; 10^-3.0 Molar) was -69%, the activity at 100 µM ([4]; 10^-4.0 Molar) was 94% and the activity at 10 µM ([4]; 10^-5.0 Molar) was 104%. It also gave an activity at 1 µM ([4]; 10^-6.0 Molar) of 106%, an activity at 0.1 µM ([4]; 10^-7.0 Molar) of 98% and an activity ([5]; 10^-3.0 Molar) of -75%. The activity at 100 µM ([5]; 10^-4.0 Molar) was 69%, the activity at 10 µM ([5]; 10^-5.0 Molar) was 108% and the activity at 1 µM ([5]; 10^-6.0 Molar) was 111%. The activity at 0.1 µM ([5]; 10^-7.0 Molar) was 110%, the activity ([6]; 10^-3.0 Molar) was -93% and the activity at 100 µM ([6]; 10^-4.0 Molar) was 89%. For the same molecule, the activity at 10 µM ([6]; 10^-5.0 Molar) was 110%, the activity at 1 µM ([6]; 10^-6.0 Molar) was 114% and the activity at 0.1 µM ([6]; 10^-7.0 Molar) was 110%. The activity ([7]; 10^-3.0 Molar) was -55%, the activity at 100 µM ([7]; 10^-4.0 Molar) was 87% and the activity at 10 µM ([7]; 10^-5.0 Molar) was 100%. It also gave an activity at 1 µM ([7]; 10^-6.0 Molar) of 106%, an activity at 0.1 µM ([7]; 10^-7.0 Molar) of 110% and an activity ([8]; 10^-3.0 Molar) of -100%. The activity at 100 µM ([8]; 10^-4.0 Molar) was 85%, the activity at 10 µM ([8]; 10^-5.0 Molar) was 92% and the activity at 1 µM ([8]; 10^-6.0 Molar) was 90%. The activity at 0.1 µM ([8]; 10^-7.0 Molar) was 95%, the activity ([9]; 10^-3.0 Molar) was -100% and the activity at 100 µM ([9]; 10^-4.0 Molar) was 92%. For the same molecule, the activity at 10 µM ([9]; 10^-5.0 Molar) was 73%, the activity at 1 µM ([9]; 10^-6.0 Molar) was 85% and the activity at 0.1 µM ([9]; 10^-7.0 Molar) was 103%. It also gave an activity ([10]; 10^-3.0 Molar) of -97%, an activity at 100 µM ([10]; 10^-4.0 Molar) of 97% and an activity at 10 µM ([10]; 10^-5.0 Molar) of 99%. The activity at 1 µM ([10]; 10^-6.0 Molar) was 98%, the activity at 0.1 µM ([10]; 10^-7.0 Molar) was 102% and the activity ([11]; 10^-3.0 Molar) was -39%. The activity at 100 µM ([11]; 10^-4.0 Molar) was 85%, the activity at 10 µM ([11]; 10^-5.0 Molar) was 99% and the activity at 1 µM ([11]; 10^-6.0 Molar) was 100%. For the same molecule, the activity at 0.1 µM ([11]; 10^-7.0 Molar) was 110%, the activity ([12]; 10^-3.0 Molar) was -42% and the activity at 100 µM ([12]; 10^-4.0 Molar) was 62%. The activity at 10 µM ([12]; 10^-5.0 Molar) was 89%, the activity at 1 µM ([12]; 10^-6.0 Molar) was 58% and the activity at 0.1 µM ([12]; 10^-7.0 Molar) was 90%. It also gave an activity ([13]; 10^-3.0 Molar) of -100%, an activity at 100 µM ([13]; 10^-4.0 Molar) of 65% and an activity at 10 µM ([13]; 10^-5.0 Molar) of 102%. For the same molecule, the activity at 1 µM ([13]; 10^-6.0 Molar) was 106%, the activity at 0.1 µM ([13]; 10^-7.0 Molar) was 101% and the activity ([14]; 10^-3.0 Molar) was -98%. It also gave an activity at 100 µM ([14]; 10^-4.0 Molar) of 67%, an activity at 10 µM ([14]; 10^-5.0 Molar) of 95% and an activity at 1 µM ([14]; 10^-6.0 Molar) of 95%. The activity at 0.1 µM ([14]; 10^-7.0 Molar) was 98%, the activity ([15]; 10^-3.0 Molar) was -70% and the activity at 100 µM ([15]; 10^-4.0 Molar) was 51%. For the same molecule, the activity at 10 µM ([15]; 10^-5.0 Molar) was 104%, the activity at 1 µM ([15]; 10^-6.0 Molar) was 110% and the activity at 0.1 µM ([15]; 10^-7.0 Molar) was 104%. It also gave an activity ([16]; 10^-3.0 Molar) of -65%, an activity at 100 µM ([16]; 10^-4.0 Molar) of 83% and an activity at 10 µM ([16]; 10^-5.0 Molar) of 120%. It also gave an activity at 1 µM ([16]; 10^-6.0 Molar) of 113%, an activity at 0.1 µM ([16]; 10^-7.0 Molar) of 106% and an activity ([17]; 10^-3.0 Molar) of -100%. The activity at 100 µM ([17]; 10^-4.0 Molar) was 48%, the activity at 10 µM ([17]; 10^-5.0 Molar) was 118% and the activity at 1 µM ([17]; 10^-6.0 Molar) was 111%. For the same molecule, the activity at 0.1 µM ([17]; 10^-7.0 Molar) was 109%.
